Results taken from patent US8084502B2, “Use of agmatine for protection of retinal ganglion cells” (priority 2007, dated 2011).

What was measured:
Assay type in all cases: cell-based, rat
RGC-5 [1] = test: Hoechst 33342 and PI staining after TNF-α
Experimental: (§1) The RGC-5 cell line, which is an RGC line developed from post-natal Sprague-Dawley rats, was grown in modified DMEM (Gibco) supplemented with 10% of heat inactivated fetal bovine serum (Gibco) and 100 U/mL of penicillin and 100 μg/mL of streptomycin (Gibco). The cells were passaged every 2 to 3 days and incubated at 37° C. in 5% of CO2 and air. At cultivation, the cells had the same morphology. For all experiments, cells were used at 80% of confluence.
(§2) After washing twice with PBS, cells were cultured in serum-free DMEM and treated with either 10 or 50 ng/mL of recombinant rat TNF-α (Chemicon) for up to 48 hours. The control cells were not exposed to TNF-α. 100 μM of agmatine was added to the culture medium at the start of injury as indicated.
Apoptotic or necrotic cell death was characterized by double staining cells with Hoechst 33342 and PI. Cells were stained with 10 μg/mL of Hoechst 33342 and 10 μg/mL of PI at 37° C. for 30 minutes. After being washed twice with PBS, cells were imaged with a digital camera attached to a fluorescence microscope.

RGC-5 [2] = test: LDH assay, TNF-α-induced cell death; details: 100 μM of agmatine; for LDH release: 50 ng/mL of TNF-α
Experimental: as §1, §2
Cell viability was quantified by measuring the amounts of LDH released from the injured cells after TNF-α administration. LDH release is expressed as a value relative to the value of 100, which is the maximum LDH release that occurs after freezing each culture at −70° C. overnight and then rapidly thawing, thus inducing nearly complete cell damage. All experiments were performed in at least quadruplicate, and repeated at least eight times using cell cultures derived from different platings.

RGC-5 [3] = test: Annexin-V assay (flow cytometry), TNF-α-induced apoptosis; details: 50 ng/mL of TNF-α
Experimental: as §1, §2
The percentage of cells actively undergoing apoptosis was determined by flow cytometry using the Annexin V-FITC Apoptosis Detection Kit (BD Biosciences, Cat no. 556547) according to the manufacturer's instructions. Briefly, cells were harvested and resuspended in binding buffer (10^6 cells/mL). 10^5 cells were mixed with 5 μL of annexin V-FITC and 5 μL of PI. After incubating at room temperature for 15 minutes in the dark, analysis was performed by flow cytometry.

## N=C(N)NCCCCN [agmatine]
RGC-5 [1]; 50 ng/mL of TNF-α for 48 hours, 100 μM of agmatine
  RGC loss (Hoechst-positive / PI-positive cells): RGC loss was prevented
RGC-5 [1]; only 100 μM of agmatine, no TNF-α, 48 hours
  effect on culture (Hoechst-positive / PI-labeled cells): did not have a significant effect
RGC-5 [2]; 24 hours
  LDH release: 5.91±0.86%
RGC-5 [2]; 48 hours
  LDH release: 8.14±2.43%
RGC-5 [2]; all P<0.001
  TNF-α-induced LDH release: significantly inhibited
RGC-5 [3]; 12 hour exposure, agmatine 100 μM
  proportion of apoptotic cells: no significant difference
RGC-5 [3]; 24 hours of exposure, 100 μM of agmatine
  proportion of apoptotic cells: significant decrease in apoptotic cells
